Experimental data reported in US9040547B2, “Pyrrolopyrimidine and purine derivatives” (PFIZER INC., priority 2011, dated 2015).

Legend:
Type in all cases: cell-based
EGFR L858R+T790M = EGFR L858R+T790M (Homo sapiens, UniProt P00533, L858R/T790M); test: pEGFR Y1068 ELISA assay, NIH3T3/EGFR_L858R+T790M cells; settings: 3T3 cell line, 2 hrs compound treatment; read-out: pEGFRY1068 ELISA3T3T790M—L858R IC50;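 note: sandwich ELISA of EGFR phosphorylated at Tyr1068 in lysates of stably transfected NIH/3T3 cells, 11-point threefold dilution series run in duplicate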
EGFR L858R = EGFR L858R (Homo sapiens, UniProt P00533, L858R); test: pEGFR Y1068 ELISA assay, NIH3T3/EGFR_L858R cells; settings: 3T3 cell line, 2 hrs compound treatment; read-out: pEGFRY1068 ELISA3T3 L858R IC50;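 note: sandwich ELISA of phospho-EGFR Tyr1068 in lysates of stably transfected NIH/3T3 pools after 2 h compound exposure at 37 °C, 11-point threefold dilution series run in duplicate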
EGFR Del (PC9) = target: T1, EGFR Del (PC9) (Homo sapiens, UniProt P00533, DEL746-750); test: EGFR ELISA, PC9 Del cells; settings: read-out: EGFR_ELISA9E PC9 Del IC50;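 note: cellular EGFR autophosphorylation at Tyr1068 quantified by sandwich ELISA of cell lysates after 2 h compound exposure at 37 °C, 11-point threefold dilution series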
T1 construct: endogenous in cells; host or cells: PC-9

[1] = target: T2, EGFR wildtype, endogenous (Homo sapiens, UniProt P00533); test: pEGFR Y1068 ELISA assay, A549 cells; settings: full serum media, stimulated 10 min with EGF (40 ng/mL), read-out: pEGFRY1068 ELISAA549 IC50;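 note: sandwich ELISA of phospho-EGFR Tyr1068 in cell lysates, cells exposed to compound for 2 h before EGF stimulation, 11-point threefold dilution series run in duplicate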
T2 construct: A549 (EGFR wildtype, endogenous); host or cells: A549

EGFR E746-A750 deletion = EGFR E746-A750 deletion (Homo sapiens, UniProt P00533, DEL746-750); test: pEGFR Y1068 ELISA assay, NIH3T3/EGFR_E746-A750 deletion cells; settings: 3T3 Del cells, 2 hrs compound treatment; read-out: ELISA7E 3T3 Del IC50;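 note: sandwich ELISA on cell lysates detecting phospho-EGFR at Tyr1068, compounds run as 11-point threefold dilution series in duplicate, IC50 from inhibition of this phosphorylation signal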
NIH3T3/EGFR_L858R = test: Cell proliferation assay (CellTiter-Glo), NIH3T3/EGFR_L858R; settings: Mus musculus, NIH3T3, 120 h, 3T3 cell line, three to five days of compound treatment, read-out: 3T3 L858R IC50
Experimental: (§1) Cell proliferation was measured using the CellTiter-Glo® Luminescent Cell Viability Assay. The assay involves the addition of a single reagent (CellTiter-Glo® Reagent) directly to cells cultured in serum-supplemented medium. The assay uses this one-step addition to induce cell lysis and generate a luminescent signal proportional to the amount of ATP present which is directly proportional to the number of metabolically active cells present in culture. The following cell lines were evaluated in this assay: NIH3T3/EGFR_L858R, NIH3T3/EGFR_E746-A750_deletion, NIH3T3/EGFR L858R+T790M, NIH3T3/EGFR_E746-A750_deletion+T790M, PC-9, PC9-DRH, NCI-H1975, and NCI-H3255. NIH/3T3 parental cells, NCI-H1975, and NCI-H3255 were purchased from the American Type Culture Collection (Manassas, Va.), and PC-9 cells were obtained from Japan. All cells were cultured according to recommendations. NIH/3T3 cells were grown in DMEM (Invitrogen, Carlsbad, Calif.) supplemented with 10% newborn calf serum (Invitrogen), and NIH3T3/EGFR mutant cells were grown in complete media with 5 μg/mL puromycin (Invitrogen). PC-9, NCI-H1975, and NCI-H3255 were grown in RPMI (Invitrogen, Carlsbad, Calif.) supplemented with 10% FBS (Sigma, St Louis, Mo.), and PC9-DRH cells were grown in complete media with 2 uM PF-00299804. Plasmids (pLPCX) with various EGFR constructs were made by GenScript (Piscataway, N.J.), and stable pools of NIH/3T3 cells expressing these constructs were made at Pfizer La Jolla. PC9-DRH cells were generated at Pfizer La Jolla by exposing cells to increasing concentrations of PF-00299804. Cells were plated in complete culture media (3000-5000 cells/well, 50 μl/well) on the bottom of white clear-bottom tissue culture treated microtiter plates (#3610, Corning Inc, Corning, N.Y.) and allowed to adhere overnight at 37° C., 5% CO2. The following day, compound dilution plates were prepared in 96 well clear V-bottom 0.5 mL polypropylene block plates (#3956, Corning, Inc). All cell lines were not evaluated for each compound. Each compound evaluated was prepared as a DMSO stock solution (10 mM). Compounds were tested in duplicate on each plate, with an 11-point serial dilution curve (1:3 dilution). Compound treatment (50 μl) was added from the compound dilution plate to the cell plate. The highest compound concentration was 1 or 10 μM (final), with a 0.3% final DMSO (#D-5879, Sigma, St Louis, Mo.) concentration. Plates were then incubated at 37° C., 5% CO2. After three to five days of compound treatment, CellTiter-Glo® Reagent (#G7573, Promega, Madison, Wis.) was prepared in one of two ways. If thawing a frozen aliquot of CellTiter-Glo® Reagent, the aliquot was thawed and equilibrated to room temperature prior to use while keeping it protected from light. Alternatively, new bottles of CellTiter-Glo® Buffer and CellTiter-Glo® Substrate were thawed and equilibrated to room temperature prior to use. CellTiter-Glo® Buffer (100 mL) was transferred into the amber bottle containing CellTiter-Glo® Substrate to reconstitute the lyophilized enzyme/substrate mixture, forming the CellTiter-Glo® Reagent. The reconstituted reagent was mixed by gently inverting the contents to obtain a homogeneous solution, and went into solution easily in less than one minute. Any unused reconstituted CellTiter-Glo® Reagent was immediately aliquoted and frozen at −20° C., protected from light. Cell plates were equilibrated at room temperature for approximately 30 minutes. An equivolume amount of CellTiter-Glo® Reagent (100 μL) was added to each well. Plates were mixed for two minutes on an orbital shaker to induce cell lysis, and then allowed to incubate at room temperature for 10 minutes to stabilize the luminescent signal. Luminescence was recorded using the PerkinElmer EnVision Excite Multilabel Reader used for endpoint reading for Luminescence detection (Waltham, Mass.). Data were analyzed using a four-parameter fit in Microsoft Excel. […]

[2] = test system: NIH3T3/EGFR_E746-A750_deletion; test: Cell proliferation assay (CellTiter-Glo), NIH3T3/EGFR_E746-A750_deletion; settings: Mus musculus, NIH3T3, 120 h, 3T3 cell line, three to five days of compound treatment, read-out: 3T3 del IC50
Experimental: as §1

[3] = test system: NIH3T3/EGFR_E746-A750_deletion+T790M; test: Cell proliferation assay (CellTiter-Glo), NIH3T3/EGFR_E746-A750_deletion+T790M; settings: Mus musculus, NIH3T3, 120 h, 3T3 cell line, three to five days of compound treatment, read-out: 3T3 del_T790M IC50
Experimental: as §1

NIH3T3/EGFR L858R+T790M = test: Cell proliferation assay (CellTiter-Glo), NIH3T3/EGFR L858R+T790M; settings: Mus musculus, NIH3T3, 120 h, 3T3 cell line, three to five days of compound treatment, read-out: 3T3 L858R_T790M IC50

Chain of EGFR L858R (P00533 25-1210 L858R): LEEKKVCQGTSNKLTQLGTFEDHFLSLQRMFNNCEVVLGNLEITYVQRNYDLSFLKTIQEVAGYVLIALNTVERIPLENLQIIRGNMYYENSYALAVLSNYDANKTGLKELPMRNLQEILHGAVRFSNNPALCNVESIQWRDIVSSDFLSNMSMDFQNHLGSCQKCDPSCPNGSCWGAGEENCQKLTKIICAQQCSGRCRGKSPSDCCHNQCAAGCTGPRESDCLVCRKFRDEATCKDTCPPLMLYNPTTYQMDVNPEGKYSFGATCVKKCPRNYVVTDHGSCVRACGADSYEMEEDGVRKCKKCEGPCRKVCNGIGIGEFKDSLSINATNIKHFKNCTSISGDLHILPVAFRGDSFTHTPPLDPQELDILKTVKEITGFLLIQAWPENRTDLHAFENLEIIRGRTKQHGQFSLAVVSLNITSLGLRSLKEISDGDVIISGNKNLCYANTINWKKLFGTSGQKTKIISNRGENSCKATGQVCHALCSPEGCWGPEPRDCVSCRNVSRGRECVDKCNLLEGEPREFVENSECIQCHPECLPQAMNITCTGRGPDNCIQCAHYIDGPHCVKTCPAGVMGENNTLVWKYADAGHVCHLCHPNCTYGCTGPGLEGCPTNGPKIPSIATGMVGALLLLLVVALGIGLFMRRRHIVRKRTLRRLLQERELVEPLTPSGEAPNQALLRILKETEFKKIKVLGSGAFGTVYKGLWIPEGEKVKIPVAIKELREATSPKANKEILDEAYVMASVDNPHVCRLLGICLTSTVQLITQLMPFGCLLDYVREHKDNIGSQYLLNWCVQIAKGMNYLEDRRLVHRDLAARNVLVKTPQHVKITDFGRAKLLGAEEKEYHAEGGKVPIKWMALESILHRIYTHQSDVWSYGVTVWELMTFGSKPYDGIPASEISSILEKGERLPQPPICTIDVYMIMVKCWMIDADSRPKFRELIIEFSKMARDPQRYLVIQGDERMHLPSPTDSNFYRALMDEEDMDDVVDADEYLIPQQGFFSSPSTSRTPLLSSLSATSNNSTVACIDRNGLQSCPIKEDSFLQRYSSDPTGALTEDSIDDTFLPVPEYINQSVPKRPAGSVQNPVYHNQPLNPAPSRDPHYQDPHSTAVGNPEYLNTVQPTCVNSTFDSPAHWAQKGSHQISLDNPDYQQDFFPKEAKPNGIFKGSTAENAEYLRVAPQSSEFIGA
T2 sequence (P00533 25-1210): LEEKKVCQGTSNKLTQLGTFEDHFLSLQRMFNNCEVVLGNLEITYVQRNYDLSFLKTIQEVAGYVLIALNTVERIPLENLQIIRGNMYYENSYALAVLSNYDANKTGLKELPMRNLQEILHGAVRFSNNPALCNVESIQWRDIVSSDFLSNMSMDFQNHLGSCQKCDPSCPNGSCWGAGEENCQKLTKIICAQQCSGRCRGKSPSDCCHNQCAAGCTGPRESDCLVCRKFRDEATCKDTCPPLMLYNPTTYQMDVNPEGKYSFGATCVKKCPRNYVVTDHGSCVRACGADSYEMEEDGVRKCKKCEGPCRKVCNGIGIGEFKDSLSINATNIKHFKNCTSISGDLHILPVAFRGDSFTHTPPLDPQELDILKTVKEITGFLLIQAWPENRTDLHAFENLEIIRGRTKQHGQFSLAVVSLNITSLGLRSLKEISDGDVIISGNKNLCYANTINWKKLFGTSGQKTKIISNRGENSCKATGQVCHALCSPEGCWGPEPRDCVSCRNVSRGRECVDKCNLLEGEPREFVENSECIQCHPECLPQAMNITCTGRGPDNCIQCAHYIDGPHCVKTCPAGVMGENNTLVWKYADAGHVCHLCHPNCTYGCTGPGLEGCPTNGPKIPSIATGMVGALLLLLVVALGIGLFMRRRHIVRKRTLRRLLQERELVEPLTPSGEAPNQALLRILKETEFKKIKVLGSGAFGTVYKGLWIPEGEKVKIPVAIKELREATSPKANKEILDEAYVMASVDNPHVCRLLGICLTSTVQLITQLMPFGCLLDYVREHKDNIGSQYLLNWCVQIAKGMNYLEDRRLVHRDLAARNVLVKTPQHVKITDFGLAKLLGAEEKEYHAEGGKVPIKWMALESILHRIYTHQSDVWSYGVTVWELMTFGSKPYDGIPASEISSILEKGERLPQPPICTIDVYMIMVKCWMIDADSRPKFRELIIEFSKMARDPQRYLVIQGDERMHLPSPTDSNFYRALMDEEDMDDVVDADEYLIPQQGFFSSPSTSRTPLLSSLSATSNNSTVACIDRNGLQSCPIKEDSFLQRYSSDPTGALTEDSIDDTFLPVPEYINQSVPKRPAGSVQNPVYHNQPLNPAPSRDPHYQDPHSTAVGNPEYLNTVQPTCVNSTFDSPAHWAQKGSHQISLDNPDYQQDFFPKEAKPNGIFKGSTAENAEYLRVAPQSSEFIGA
Chain of EGFR L858R+T790M (P00533 25-1210 T790M/L858R): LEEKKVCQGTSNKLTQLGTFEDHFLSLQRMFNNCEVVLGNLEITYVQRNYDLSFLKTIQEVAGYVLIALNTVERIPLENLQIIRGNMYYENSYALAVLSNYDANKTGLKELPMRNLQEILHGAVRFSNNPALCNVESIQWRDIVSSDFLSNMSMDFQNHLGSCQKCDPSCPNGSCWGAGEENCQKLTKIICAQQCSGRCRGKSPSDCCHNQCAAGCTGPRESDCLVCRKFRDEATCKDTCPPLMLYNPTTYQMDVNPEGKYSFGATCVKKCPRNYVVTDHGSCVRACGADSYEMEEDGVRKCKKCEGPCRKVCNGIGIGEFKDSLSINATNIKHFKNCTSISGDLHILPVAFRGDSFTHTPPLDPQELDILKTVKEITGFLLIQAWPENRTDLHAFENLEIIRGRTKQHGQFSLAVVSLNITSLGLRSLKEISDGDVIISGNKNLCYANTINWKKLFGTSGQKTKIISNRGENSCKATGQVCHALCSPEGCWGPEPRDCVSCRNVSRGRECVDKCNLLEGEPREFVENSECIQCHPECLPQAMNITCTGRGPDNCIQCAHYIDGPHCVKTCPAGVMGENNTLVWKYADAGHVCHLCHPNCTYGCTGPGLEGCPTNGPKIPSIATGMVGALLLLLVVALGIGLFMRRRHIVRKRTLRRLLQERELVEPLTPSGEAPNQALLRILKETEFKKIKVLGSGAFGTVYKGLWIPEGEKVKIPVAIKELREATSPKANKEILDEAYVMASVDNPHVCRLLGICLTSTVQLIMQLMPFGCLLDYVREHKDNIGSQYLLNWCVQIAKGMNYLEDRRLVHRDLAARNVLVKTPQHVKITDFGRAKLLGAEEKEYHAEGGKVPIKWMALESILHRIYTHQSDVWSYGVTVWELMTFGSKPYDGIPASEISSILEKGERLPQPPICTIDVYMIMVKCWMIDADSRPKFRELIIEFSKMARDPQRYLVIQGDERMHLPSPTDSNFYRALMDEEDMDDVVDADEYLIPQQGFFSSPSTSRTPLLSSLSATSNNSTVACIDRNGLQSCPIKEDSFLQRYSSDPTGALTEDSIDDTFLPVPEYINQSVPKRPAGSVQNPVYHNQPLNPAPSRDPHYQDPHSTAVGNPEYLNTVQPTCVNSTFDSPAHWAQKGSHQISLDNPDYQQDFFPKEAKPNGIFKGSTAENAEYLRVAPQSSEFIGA
T1 sequence (P00533 with tags, fused parts or gaps DEL746-750): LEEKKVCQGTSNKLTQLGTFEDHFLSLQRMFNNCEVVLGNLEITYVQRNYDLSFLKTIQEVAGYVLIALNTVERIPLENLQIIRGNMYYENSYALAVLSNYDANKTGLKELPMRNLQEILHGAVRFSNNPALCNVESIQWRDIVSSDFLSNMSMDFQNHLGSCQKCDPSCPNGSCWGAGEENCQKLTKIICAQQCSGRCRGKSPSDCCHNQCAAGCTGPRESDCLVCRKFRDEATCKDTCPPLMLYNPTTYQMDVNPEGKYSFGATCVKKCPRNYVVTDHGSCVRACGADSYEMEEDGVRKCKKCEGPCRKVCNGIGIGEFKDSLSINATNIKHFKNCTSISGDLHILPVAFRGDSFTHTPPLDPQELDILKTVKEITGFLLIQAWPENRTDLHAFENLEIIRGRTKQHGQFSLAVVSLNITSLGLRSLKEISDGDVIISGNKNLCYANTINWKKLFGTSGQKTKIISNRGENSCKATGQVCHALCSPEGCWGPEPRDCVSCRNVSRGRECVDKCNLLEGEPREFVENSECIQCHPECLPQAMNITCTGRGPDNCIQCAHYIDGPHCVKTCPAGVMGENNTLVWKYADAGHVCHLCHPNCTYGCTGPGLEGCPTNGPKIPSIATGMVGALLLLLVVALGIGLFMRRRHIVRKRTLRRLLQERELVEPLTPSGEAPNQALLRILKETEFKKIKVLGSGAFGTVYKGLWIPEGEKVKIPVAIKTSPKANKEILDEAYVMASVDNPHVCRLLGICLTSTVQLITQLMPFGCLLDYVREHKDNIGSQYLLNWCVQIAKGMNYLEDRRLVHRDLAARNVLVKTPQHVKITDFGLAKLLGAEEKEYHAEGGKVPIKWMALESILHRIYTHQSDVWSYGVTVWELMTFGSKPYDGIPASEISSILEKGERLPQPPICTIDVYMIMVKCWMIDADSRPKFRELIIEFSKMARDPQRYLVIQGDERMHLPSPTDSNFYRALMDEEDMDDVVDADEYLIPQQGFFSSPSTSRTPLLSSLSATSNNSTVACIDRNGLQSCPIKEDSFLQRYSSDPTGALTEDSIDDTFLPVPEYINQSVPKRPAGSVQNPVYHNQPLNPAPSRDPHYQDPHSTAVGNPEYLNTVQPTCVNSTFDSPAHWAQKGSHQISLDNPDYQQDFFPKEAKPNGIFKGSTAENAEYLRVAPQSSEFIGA

Structure (SMILES) | IC50 (EGFR L858R+T790M) [nM] | IC50 (EGFR L858R) [nM] | IC50 (EGFR Del (PC9)) [nM] | IC50 [1] [nM] | IC50 (EGFR E746-A750 deletion) [nM] | IC50 (NIH3T3/EGFR_L858R) [nM] | IC50 [2] [nM] | IC50 [3] [nM] | IC50 (NIH3T3/EGFR L858R+T790M) [nM]
C=CC(=O)N[C@H]1C[C@@](C)(Oc2nc(Nc3cnn(C)c3)nc3[nH]cc(Cl)c23)C1 [Example 69] | 19 | 287 | 465 | > 9370 | 117 |  |  |  | 
C=CC(=O)N1C[C@H](COc2nc(Nc3cnn([C@@H]4CCOC4)c3)nc3[nH]cc(Cl)c23)[C@@H](OC)C1 [Example 72] |  |  |  |  |  | 100 to 1000 | 100 to 1000 | 10 to 100 | 100 to 1000
C=CC(=O)N1C[C@H](COC)[C@@H](COc2nc(Nc3cnn(C)c3)nc3[nH]cc(Cl)c23)C1 [Example 74] |  |  |  |  |  | 100 to 1000 | 10 to 100 | 10 to 100 | 100 to 1000
C=CC(=O)N(C)[C@H]1C[C@H](Oc2nc(Nc3cnn(CC(O)CN(C)C)c3)nc3[nH]cc(Cl)c23)C1 (some centres unmarked) [Example 75] | 69 | 3550 |  | > 10000 |  | > 1000 | 100 to 1000 | 10 to 100 | 100 to 1000
C=CC(=O)N1CCOC2(CCN(c3nc(Nc4cnn(C)c4)nc4[nH]cc(Cl)c34)C2)C1 (centres unmarked) [Example 76] | 26 | 855 |  | > 10000 |  | > 1000 | 100 to 1000 | 100 to 1000 | 100 to 1000
C=CC(=O)N1CC[C@@H](Nc2nc(Nc3cnn(C)c3)nc3[nH]cc(C#N)c23)C1 [Example 78] |  |  | 3220 | > 10000 |  |  |  |  | 
C=CC(=O)N1C[C@H](COc2nc(Nc3cnn([C@@H]4CCOC4)c3)nc3[nH]cc(Cl)c23)[C@@H](OC)C1 [Example 103] | 15 | 332 |  | > 10000 | 512 |  |  |  | 
C=CC(=O)Nc1cccc(Oc2nc(Nc3cc(OCCN(C)C)nn3C)nc3[nH]ccc23)c1F [Example 104] | 25 | 123 |  | > 10000 | 110 |  |  |  | 
C=CC(=O)N1CC(Oc2nc(Nc3cnn(C)c3)nc3[nH]cc(Cl)c23)C1 [Example 105] | 37 | 490 |  | > 10000 |  | 100 to 1000 | 100 to 1000 | 100 to 1000 | 100 to 1000
C=CC(=O)Nc1cccc(Oc2nc(Nc3cnn([C@H]4CCN(C)C4)c3)nc3[nH]ccc23)c1F [Example 106] | 8 | 15 |  | > 10000 | 9 |  |  |  | 
C=CC(=O)N1C[C@H](COc2nc(Nc3cnn(C)c3)nc3[nH]cc(-c4ccccn4)c23)[C@@H](OC)C1 [Example 117] |  |  | 838 | > 10000 |  |  |  |  | 
